Drawing on US9981975B2, “Pyrrolotriazine compounds as tam inhibitors” (Incyte Corporation, priority 2016, dated 2018), this text covers IC50 for 19 compounds.

Common to all, as to format: biochemical
In test [1] the target is Tyro3 (Homo sapiens (Human), UniProt Q06418). The experiment in a line: TAM Enzymatic Assay (HTRF), Tyro3. The following applies: Tyro3, 60 min, room temperature. In short, it runs like this: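 Reactions ran 60 min at room temperature, protected from light, started by substrate addition to enzyme plus DMSO compound, in pH 7.5 HEPES buffer with 10 mM MgCl2, 1 mM EGTA, 0.01% NP-40, 2 mM DTT.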
A general note: TR-FRET usually uses a lanthanide donor and a delayed reading to cut background.

Test [2] deals with c-Mer (Homo sapiens (Human), UniProt Q12866). In words: TAM Enzymatic Assay (HTRF), Mer. The following applies: 60 min, room temperature. On the procedure: The kinase assay buffer contained 50 mM HEPES, pH7.5, 10 mM MgCl2, 1 mM EGTA, 0.01% NP-40 and 2 mM DTT. 0.1 ul test compounds dissolved in DMSO were transferred from compound plates to white 384-well assay plates (Greiner […] plates). […] 4 ul enzyme solution (or assay buffer for the enzyme blank) was added to the appropriate wells in each plate, and then 4 ul/well substrate solution was added to initiate the reaction. The plate was protected from light and incubated at room temperature for 60 min. […] The plate was incubated for 1 h at room temperature, and HTRF (homogenous time resolved fluorescence) signal was measured on a PHERAstar FS plate reader (BMG labtech). Percentage of inhibition was calculated for each concentration and IC50 value was generated from curve fitting with GraphPad Prism software.

Test [3] deals with phosphor-Axl (Homo sapiens (Human), UniProt P30530). In words: TAM Enzymatic Assay (HTRF), Axl. The following applies: recombinant autophosphorylated Axl, 60 min, room temperature.
Sequence of phosphor-Axl (P30530 26-894): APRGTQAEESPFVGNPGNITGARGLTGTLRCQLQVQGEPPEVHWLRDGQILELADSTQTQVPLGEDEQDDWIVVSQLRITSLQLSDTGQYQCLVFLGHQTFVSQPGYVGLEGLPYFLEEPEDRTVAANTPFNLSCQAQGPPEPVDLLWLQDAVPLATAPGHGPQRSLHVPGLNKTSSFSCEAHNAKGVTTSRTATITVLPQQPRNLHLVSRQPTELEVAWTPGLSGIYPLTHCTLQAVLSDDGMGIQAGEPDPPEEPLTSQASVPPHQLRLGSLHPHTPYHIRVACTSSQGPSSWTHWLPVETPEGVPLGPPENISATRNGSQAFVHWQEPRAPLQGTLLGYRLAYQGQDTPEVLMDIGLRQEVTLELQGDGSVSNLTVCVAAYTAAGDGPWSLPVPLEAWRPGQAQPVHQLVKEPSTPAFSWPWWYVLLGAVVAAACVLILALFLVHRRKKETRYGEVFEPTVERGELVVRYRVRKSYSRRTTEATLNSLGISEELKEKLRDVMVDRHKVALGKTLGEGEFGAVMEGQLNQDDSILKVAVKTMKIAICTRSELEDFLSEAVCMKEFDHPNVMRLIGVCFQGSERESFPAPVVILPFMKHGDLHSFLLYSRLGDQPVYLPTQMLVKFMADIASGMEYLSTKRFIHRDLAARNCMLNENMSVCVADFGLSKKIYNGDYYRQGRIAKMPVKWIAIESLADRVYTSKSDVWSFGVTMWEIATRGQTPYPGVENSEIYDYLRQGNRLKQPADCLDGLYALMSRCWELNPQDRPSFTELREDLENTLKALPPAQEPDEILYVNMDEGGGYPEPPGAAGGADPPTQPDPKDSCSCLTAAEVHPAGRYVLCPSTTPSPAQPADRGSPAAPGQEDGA

Sequence of c-Mer (Q12866 21-999): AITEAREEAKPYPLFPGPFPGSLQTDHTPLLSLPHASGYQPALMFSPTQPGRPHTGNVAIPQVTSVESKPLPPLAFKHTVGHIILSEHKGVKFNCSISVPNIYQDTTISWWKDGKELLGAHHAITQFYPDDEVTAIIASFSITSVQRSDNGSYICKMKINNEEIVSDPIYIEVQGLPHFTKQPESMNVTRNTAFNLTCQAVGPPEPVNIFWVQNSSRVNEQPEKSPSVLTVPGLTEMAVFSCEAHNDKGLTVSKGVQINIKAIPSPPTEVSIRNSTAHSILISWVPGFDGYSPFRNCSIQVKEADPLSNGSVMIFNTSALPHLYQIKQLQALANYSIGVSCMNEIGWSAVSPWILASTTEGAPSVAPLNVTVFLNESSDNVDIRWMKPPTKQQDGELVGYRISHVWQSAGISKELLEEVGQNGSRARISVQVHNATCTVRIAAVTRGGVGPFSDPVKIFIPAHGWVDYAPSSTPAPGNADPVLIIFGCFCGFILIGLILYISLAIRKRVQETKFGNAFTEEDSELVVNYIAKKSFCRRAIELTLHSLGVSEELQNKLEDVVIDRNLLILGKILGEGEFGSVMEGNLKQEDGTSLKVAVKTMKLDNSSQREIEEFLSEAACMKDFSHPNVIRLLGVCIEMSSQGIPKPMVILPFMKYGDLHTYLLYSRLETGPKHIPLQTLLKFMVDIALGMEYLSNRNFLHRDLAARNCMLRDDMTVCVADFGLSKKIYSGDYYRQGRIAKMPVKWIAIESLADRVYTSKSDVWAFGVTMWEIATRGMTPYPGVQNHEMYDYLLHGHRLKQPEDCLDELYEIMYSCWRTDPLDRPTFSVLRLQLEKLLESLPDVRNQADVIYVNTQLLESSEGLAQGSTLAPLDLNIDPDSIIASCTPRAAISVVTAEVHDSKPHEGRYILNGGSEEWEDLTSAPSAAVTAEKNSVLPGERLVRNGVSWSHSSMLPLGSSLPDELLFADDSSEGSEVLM
Sequence of Tyro3 (Q06418 41-890): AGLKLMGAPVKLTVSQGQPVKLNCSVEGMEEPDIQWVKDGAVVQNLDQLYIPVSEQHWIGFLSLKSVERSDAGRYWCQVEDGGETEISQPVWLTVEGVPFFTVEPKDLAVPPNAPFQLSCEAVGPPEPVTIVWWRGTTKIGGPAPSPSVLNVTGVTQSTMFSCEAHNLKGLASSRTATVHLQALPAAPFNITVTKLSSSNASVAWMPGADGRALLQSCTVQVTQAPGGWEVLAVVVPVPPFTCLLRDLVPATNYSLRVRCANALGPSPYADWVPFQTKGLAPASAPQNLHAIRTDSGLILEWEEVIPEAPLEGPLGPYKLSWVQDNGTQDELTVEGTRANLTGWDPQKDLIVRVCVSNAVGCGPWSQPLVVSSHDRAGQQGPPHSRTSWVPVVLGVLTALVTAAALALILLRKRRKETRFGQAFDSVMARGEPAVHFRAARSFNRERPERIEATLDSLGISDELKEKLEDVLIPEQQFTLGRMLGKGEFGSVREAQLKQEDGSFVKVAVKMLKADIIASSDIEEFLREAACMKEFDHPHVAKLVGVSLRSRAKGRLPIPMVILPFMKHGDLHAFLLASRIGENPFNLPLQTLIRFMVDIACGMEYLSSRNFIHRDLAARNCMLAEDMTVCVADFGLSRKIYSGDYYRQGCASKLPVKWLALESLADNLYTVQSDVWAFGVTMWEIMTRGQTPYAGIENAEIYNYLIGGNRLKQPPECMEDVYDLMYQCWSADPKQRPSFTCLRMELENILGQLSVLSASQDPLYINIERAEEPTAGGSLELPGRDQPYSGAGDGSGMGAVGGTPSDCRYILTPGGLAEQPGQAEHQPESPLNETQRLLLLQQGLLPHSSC

The term IC50 denotes the concentration needed to halve the response being measured. Turning to `CC(C)C(=O)N1CCC(c2cc(-c3ccc(NC(=O)c4cn(C(C)C)c(=O)n(-c5cccnc5)c4=O)cc3)c3c(N)ncnn23)CC1` [Example 78, N-(4-(4-Amino-7-(1-isobutyrylpiperidin-4-yl)pyrrolo[1,2-f][1,2,4]triazin-5-yl)phenyl)-1-isopropyl-2,4-dioxo-3-(pyridin-3-yl)-1,2,3,4-tetrahydropyrimidine-5-carboxamide], the values for the IC50 in test [1], in test [2] and in test [3] were 10 to 100 nM, no more than 5 nM and no more than 5 nM, respectively.
As to `Cc1c(-c2cscn2)cc(C(=O)Nc2ccc(-c3cc(C4CCN(C(=O)C(C)C)CC4)n4ncnc(N)c34)cc2)c(=O)n1-c1cncc(F)c1` [Example 103, N-(4-(4-Amino-7-(1-isobutyrylpiperidin-4-yl)pyrrolo[2,1-f][1,2,4]triazin-5-yl)phenyl)-5′-fluoro-6-methyl-2-oxo-5-(thiazol-4-yl)-2H-[1,3′-bipyridine]-3-carboxamide], the IC50 in test [1] was 10 to 100 nM; in test [2], no more than 5 nM; in test [3], no more than 5 nM.
Take `CC(C)n1cc(C(=O)Nc2ccc(-c3cc(C4CCN(C(=O)N(C)C)CC4)n4ncnc(N)c34)cc2)c(=O)n(-c2ccccc2)c1=O` [Example 61, N-(4-(4-Amino-7-(1-(dimethylcarbamoyl)piperidin-4-yl)pyrrolo[1,2-f][1,2,4]triazin-5-yl)phenyl)-1-isopropyl-2,4-dioxo-3-phenyl-1,2,3,4-tetrahydropyrimidine-5-carboxamide]: the figures for the IC50 in test [1], in test [2] and in test [3] were 10 to 100 nM, no more than 5 nM and no more than 5 nM, respectively.
With `COC(=O)N1CCC(c2cc(-c3ccc(NC(=O)c4cccn(-c5ccc(F)cc5)c4=O)cc3)c3c(N)ncnn23)CC1` [Example 37, Methyl 4-{4-amino-5-[4-({[1-(4-fluorophenyl)-2-oxo-1,2-dihydropyridin-3-yl]carbonyl}amino)phenyl]pyrrolo[2,1-f][1,2,4]triazin-7-yl}piperidine-1-carboxylate], the IC50 was 10 to 100 nM in test [1], no more than 5 nM in test [2] and no more than 5 nM in test [3].
As to `CN(C)C(=O)N1CCC(c2cc(-c3ccc(NC(=O)c4cccn(-c5ccc(F)cc5)c4=O)cc3F)c3c(N)ncnn23)CC1` [Example 47, N-[4-(4-Amino-7-{1-[(dimethylamino)carbonyl]piperidin-4-yl}pyrrolo[2,1-f][1,2,4]triazin-5-yl)-3-fluorophenyl]-1-(4-fluorophenyl)-2-oxo-1,2-dihydropyridine-3-carboxamide], the IC50 was 10 to 100 nM in test [1], no more than 5 nM in test [2] and no more than 5 nM in test [3].
Consider `COCCN1CCC(c2cc(-c3ccc(NC(=O)c4cccn(-c5ccc(F)cc5)c4=O)cc3)c3c(N)ncnn23)CC1` [Example 49, N-(4-{4-Amino-7-[1-(2-methoxyethyl)piperidin-4-yl]pyrrolo[2,1-f][1,2,4]triazin-5-yl}phenyl)-1-(4-fluorophenyl)-2-oxo-1,2-dihydropyridine-3-carboxamide], for which the results for the IC50 in test [1], in test [2] and in test [3] were 10 to 100 nM, no more than 5 nM and no more than 5 nM, respectively.
As for `Cc1c(CC#N)cc(C(=O)Nc2ccc(-c3cc(C4CCN(C(=O)C(C)C)CC4)n4ncnc(N)c34)cc2)c(=O)n1-c1ccccn1` [Example 122, N-(4-(4-Amino-7-(1-isobutyrylpiperidin-4-yl)pyrrolo[1,2-f][1,2,4]triazin-5-yl)phenyl)-5-(cyanomethyl)-6-methyl-2-oxo-1-(pyridin-2-yl)-1,2-dihydropyridine-3-carboxamide], the IC50 in test [1] is greater than 100 nM; in test [2] it was no more than 5 nM; in test [3], no more than 5 nM.
As for `CC(C)C(=O)N1CCC(c2cc(-c3ccc(NC(=O)c4cn(C(C)C)c(=O)n(-c5ccccn5)c4=O)cc3)c3c(N)ncnn23)CC1` [Example 83, N-(4-(4-Amino-7-(1-isobutyrylpiperidin-4-yl)pyrrolo[1,2-f][1,2,4]triazin-5-yl)phenyl)-1-isopropyl-2,4-dioxo-3-(pyridin-2-yl)-1,2,3,4-tetrahydropyrimidine-5-carboxamide], the IC50 in test [1] is 10 to 100 nM; in test [2] it was no more than 5 nM; in test [3] it was no more than 5 nM.
Take `CC(=O)N1CCC(c2cc(-c3ccc(NC(=O)c4cccn(-c5ccc(F)cc5)c4=O)cc3F)c3c(N)ncnn23)CC1` [Example 27, N-{4-[7-(1-Acetylpiperidin-4-yl)-4-aminopyrrolo[2,1-f][1,2,4]triazin-5-yl]-3-fluorophenyl}-1-(4-fluorophenyl)-2-oxo-1,2-dihydropyridine-3-carboxamide]: the IC50 in test [1] was 10 to 100 nM; in test [2], no more than 5 nM; in test [3], no more than 5 nM.
For the compound `Cc1c(CC#N)cc(C(=O)Nc2ccc(-c3cc(C4CCN(C(=O)C(C)C)CC4)n4ncnc(N)c34)cc2)c(=O)n1-c1cncc(F)c1` [Example 102, N-(4-(4-Amino-7-(1-isobutyrylpiperidin-4-yl)pyrrolo[2,1-f][1,2,4]triazin-5-yl)phenyl)-5-(cyanomethyl)-5′-fluoro-6-methyl-2-oxo-2H-[1,3′-bipyridine]-3-carboxamide], the IC50 in test [1] was 10 to 100 nM; in test [2], no more than 5 nM; in test [3] it was no more than 5 nM.
For the compound `CS(=O)(=O)N1CCC(c2cc(-c3ccc(NC(=O)c4cccn(-c5ccccc5)c4=O)cc3F)c3c(N)ncnn23)CC1` [Example 42], the IC50 in test [1] is 10 to 100 nM; in test [2] it was no more than 5 nM; in test [3], no more than 5 nM.
Regarding `Nc1ncnn2c(C3CCNCC3)cc(-c3ccc(NC(=O)c4cccn(-c5ccccc5)c4=O)cc3F)c12` [Example 34, N-[4-(4-Amino-7-piperidin-4-ylpyrrolo[2,1-f][1,2,4]triazin-5-yl)-3-fluorophenyl]-2-oxo-1-phenyl-1,2-dihydropyridine-3-carboxamide], the IC50 in test [1] is 10 to 100 nM; in test [2] it was no more than 5 nM; in test [3] it was no more than 5 nM.
For the compound `Cc1c(Br)cc(C(=O)Nc2ccc(-c3cc(C4CCN(C(=O)C(C)C)CC4)n4ncnc(N)c34)cc2)c(=O)n1-c1cccnc1` [Example 130, N-(4-(4-Amino-7-(1-isobutyrylpiperidin-4-yl)pyrrolo[2,1-f][1,2,4]triazin-5-yl)phenyl)-5-bromo-6-methyl-2-oxo-2H-[1,3′-bipyridine]-3-carboxamide], the half-inhibitory concentration (IC50) in test [1] is greater than 100 nM; in test [2], no more than 5 nM; in test [3], no more than 5 nM.
For `COCCN1CCC(c2cc(-c3ccc(NC(=O)c4cccn(-c5ccc(F)cc5)c4=O)cc3F)c3c(N)ncnn23)CC1` [Example 51, N-(4-{4-Amino-7-[1-(2-methoxyethyl)piperidin-4-yl]pyrrolo[2,1-f][1,2,4]triazin-5-yl}-3-fluorophenyl)-1-(4-fluorophenyl)-2-oxo-1,2-dihydropyridine-3-carboxamide], the results for the IC50 in test [1], in test [2] and in test [3] were 5 to 10 nM, no more than 5 nM and no more than 5 nM, respectively.
Turning to `CC(C)C(=O)N1CCC(c2cc(-c3ccc(NC(=O)c4cc(C#C[C@H](C)O)cn(-c5ccccc5)c4=O)cc3)c3c(N)ncnn23)CC1` [Example 120, (S)—N-(4-(4-Amino-7-(1-isobutyrylpiperidin-4-yl)pyrrolo[2,1-f][1,2,4]triazin-5-yl)phenyl)-5-(3-hydroxybut-1-yn-1-yl)-2-oxo-1-phenyl-1,2-dihydropyridine-3-carboxamide], the results for the IC50 in test [1], in test [2] and in test [3] were greater than 100 nM, no more than 5 nM and no more than 5 nM, respectively.
On to `CCc1cc(-c2ccc(NC(=O)c3cccn([C@H](CC)CO)c3=O)cc2)c2c(N)ncnn12` [Example 4, N-[4-(4-Amino-7-ethylpyrrolo[2,1-f][1,2,4]triazin-5-yl)phenyl]-1-[(1R)-1-(hydroxymethyl)propyl]-2-oxo-1,2-dihydropyridine-3-carboxamide], for which the IC50 in test [1], in test [2] and in test [3] was greater than 100 nM throughout.
Take `CN1CCC(c2cc(-c3ccc(NC(=O)c4cccn(-c5ccccc5)c4=O)cc3F)c3c(N)ncnn23)CC1` [Example 22, N-{4-[4-Amino-7-(1-methylpiperidin-4-yl)pyrrolo[2,1-f][1,2,4]triazin-5-yl]-3-fluorophenyl}-2-oxo-1-phenyl-1,2-dihydropyridine-3-carboxamide]: the IC50 was 10 to 100 nM in test [1], no more than 5 nM in test [2] and no more than 5 nM in test [3].
Regarding `CCn1cc(C(=O)Nc2ccc(-c3cc(C4CCN(C(=O)[C@@H](C)O)CC4)n4ncnc(N)c34)cc2)c(=O)n(-c2ccc(F)cc2)c1=O` [Example 79, (R)—N-(4-(4-Amino-7-(1-(2-hydroxypropanoyl)piperidin-4-yl)pyrrolo[1,2-f][1,2,4]triazin-5-yl)phenyl)-1-ethyl-3-(4-fluorophenyl)-2,4-dioxo-1,2,3,4-tetrahydropyrimidine-5-carboxamide], the IC50 in test [1] was 10 to 100 nM; in test [2], no more than 5 nM; in test [3], no more than 5 nM.
Consider `Cc1c(-c2cncc(F)c2)c(=O)c(C(=O)Nc2ccc(-c3cc(C4CCN(C(=O)C(C)C)CC4)n4ncnc(N)c34)cc2)cn1C(C)C` [Example 98, N-(4-(4-Amino-7-(1-isobutyrylpiperidin-4-yl)pyrrolo[2,1-f][1,2,4]triazin-5-yl)phenyl)-5′-fluoro-1-isopropyl-2-methyl-4-oxo-1,4-dihydro-[3,3′-bipyridine]-5-carboxamide], for which the IC50 is 10 to 100 nM in test [1], no more than 5 nM in test [2] and no more than 5 nM in test [3].
